Data taken from patent US12398140B2, “Substituted pyrrolo [2,3-d]pyrimidines for treating familial dysautonomia” (PTC THERAPEUTICS, INC., priority 2019, dated 2025).
Counter-ions that a name gives are not always drawn.

System: Elongator complex protein 1 (ELPI, also referred to as IKBKAP)
Assay: IKBKAP-HTRF assay (IKBKAP protein in lysates of FD patient-derived fibroblasts)
Assay type: cell-based, human
Conditions: FD patient-derived fibroblasts GM04589, 48 hours, 7-point concentration curve
Procedure: The assay is used for the quantitative determination of Elongator complex protein 1 (ELPI, also referred to as IKBKAP) concentration in cell lysates using the HTRF® (Homogeneous Time-Resolved Fluorescence) technology. IKBKAP is detected in a sandwich HTRF assay by use of an anti-IKAP antibody labeled with a donor and an anti-IKAP antibody labeled with an acceptor.
Cells were thawed and incubated in DMEM-10% FBS for 72 hours. Cells were trypsinized, counted, and re-suspended to a concentration of 50,000 cells/ml in DMEM-10% FBS. A 199 μL aliquot of the cell suspensions were plated at 10,000 cells per well in a 96 well microtiter plate and incubated for 3 to 5 hours. […] Test compounds were serially diluted 3.16-fold in 100% DMSO to generate a 7-point concentration curve. A 1 μL aliquot of 200× compound solution was transferred to cell-containing wells, and cells were incubated for 48 hours in a cell culture incubator (37° C., 5% CO2, 100% relative humidity). Triplicate samples were set up for each compound concentration. After 48 hours, the supernatant was removed from the cells and 50 μL of the 1×LB4 lysis buffer, containing protease inhibitors, was added to the cells and incubated with shaking at room temperature for 1 hour. A 36 μL aliquot of this lysate was subsequently transferred to the 384-well plate containing 4 μL of the antibody solution (1:50 dilution of anti IKAP d2 and anti-IKAP K(9+8) in detection buffer). The 384-well plate was then centrifuged for 1 minute to bring the solutions to the bottom of the plate and incubated overnight at 4° C. Fluorescence for each well of the plate at 665 nm and 620 nm was measured was on the EnVision plate reader (Perkin Elmer). The ΔF for each sample is calculated by:
[formula] wherein Signal is the normalized fluorescence for each sample well and Blank is the average normalized average fluorescence for the Blank control wells.
The maximum fold increase (MFI) in IKBKAP protein abundance for compounds of Formula (I) or a form thereof relative to the vehicle control are provided in Table 1. MFI was calculated by dividing the ΔF value for each sample well by the sample ΔF for the vehicle control wells.
The EC2x for IKBKAP protein expression obtained from the 7-point concentration curve generated for each test compound according to the protocol in Biological Example 1 are also provided in Table 1. The term “EC2x for IKBKAP protein expression” is defined as the concentration of test compound that is effective in producing two times the amount of IKBKAP protein in a FD patient cell compared to the amount produced from the DMSO vehicle control.

| Structure (SMILES) | EC2x for IKBKAP protein expression (concentration producing two times the amount of IKBKAP protein vs DMSO vehicle control) | MFI (maximum fold increase in IKBKAP protein abundance relative to the vehicle control) |
| --- | --- | --- |
| Cl.NCCCc1cc2c(NCc3ccco3)nc(Cl)nc2[nH]1 [Cpd 1, 6-(3-aminopropyl)-2-chloro-N-[(furan-2-yl)methyl]-7H-pyrrolo[2,3-d]pyrimidin-4-amine hydrochloride] | *** (between >0.02 μM and ≤0.5 μM is indicated by three stars (***)) | **** (between >3.9 and ≤4.9 is indicated by four stars (****)) |
| Cl.NCCCc1[nH]c2nc(Cl)nc(NCc3ccco3)c2c1F [Cpd 2, 6-(3-aminopropyl)-2-chloro-5-fluoro-N-[(furan-2-yl)methyl]-7H-pyrrolo[2,3-d]pyrimidin-4-amine hydrochloride] | *** (between >0.02 μM and ≤0.5 μM is indicated by three stars (***)) | *** (between >2.9 and ≤3.9 is indicated by three stars (***)) |
| CNCCc1cc2c(NCc3ccco3)nc(Cl)nc2[nH]1.Cl [Cpd 3, 2-chloro-N-[(furan-2-yl)methyl]-6-[2-(methylamino)ethyl]-7H-pyrrolo[2,3-d]pyrimidin-4-amine hydrochloride] | *** (between >0.02 μM and ≤0.5 μM is indicated by three stars (***)) | ***** (>4.9 is indicated by five stars (*****)) |
| CNC(C)Cc1cc2c(NCc3ccco3)nc(Cl)nc2[nH]1.Cl (stereo not shown) [Cpd 4, 2-chloro-N-[(furan-2-yl)methyl]-6-[2-(methylamino)propyl]-7H-pyrrolo[2,3-d]pyrimidin-4-amine hydrochloride] | *** (between >0.02 μM and ≤0.5 μM is indicated by three stars (***)) | **** (between >3.9 and ≤4.9 is indicated by four stars (****)) |
| CNCCc1cc2c(NCc3nccs3)nc(Cl)nc2[nH]1.Cl [Cpd 5, 2-chloro-6-[2-(methylamino)ethyl]-N-[(1,3-thiazol-2-yl)methyl]-7H-pyrrolo[2,3-d]pyrimidin-4-amine hydrochloride] | *** (between >0.02 μM and ≤0.5 μM is indicated by three stars (***)) | ***** (>4.9 is indicated by five stars (*****)) |
| CNCCc1[nH]c2nc(Cl)nc(NCc3ccco3)c2c1F.Cl [Cpd 6, 2-chloro-5-fluoro-N-[(furan-2-yl)methyl]-6-[2-(methylamino)ethyl]-7H-pyrrolo[2,3-d]pyrimidin-4-amine hydrochloride] | *** (between >0.02 μM and ≤0.5 μM is indicated by three stars (***)) | ***** (>4.9 is indicated by five stars (*****)) |
| CN(C)CCc1cc2c(NCc3ccco3)nc(Cl)nc2[nH]1 [Cpd 7, 2-chloro-6-[2-(dimethylamino)ethyl]-N-[(furan-2-yl)methyl]-7H-pyrrolo[2,3-d]pyrimidin-4-amine] | * (An EC2x>1 μM is indicated by one star (*)) | * (An MFI≤1.9 is indicated by one star (*)) |
| Cl.NCCc1cc2c(NCc3ccco3)nc(Cl)nc2[nH]1 [Cpd 8, 6-(2-aminoethyl)-2-chloro-N-[(furan-2-yl)methyl]-7H-pyrrolo[2,3-d]pyrimidin-4-amine hydrochloride] | *** (between >0.02 μM and ≤0.5 μM is indicated by three stars (***)) | *** (between >2.9 and ≤3.9 is indicated by three stars (***)) |
| [2H]C([2H])([2H])NCCc1cc2c(NCc3ccco3)nc(Cl)nc2[nH]1 [Cpd 9, 2-chloro-N-[(furan-2-yl)methyl]-6-{2-[(^2H3)methylamino]ethyl}-7H-pyrrolo[2,3-d]pyrimidin-4-amine hydrochloride] | *** (between >0.02 μM and ≤0.5 μM is indicated by three stars (***)) | **** (between >3.9 and ≤4.9 is indicated by four stars (****)) |
| C[C@H](N)Cc1[nH]c2nc(Cl)nc(NCc3ccco3)c2c1F.Cl [Cpd 10, 6-[(2S)-2-aminopropyl]-2-chloro-5-fluoro-N-[(furan-2-yl)methyl]-7H-pyrrolo[2,3-d]pyrimidin-4-amine hydrochloride] | **** (between >0.005 μM and ≤0.02 μM is indicated by four stars (****)) | ***** (>4.9 is indicated by five stars (*****)) |
| CC(C)[C@H](N)Cc1cc2c(NCc3ccco3)nc(Cl)nc2[nH]1.Cl [Cpd 11, 6-[(2R)-2-amino-3-methylbutyl]-2-chloro-N-[(furan-2-yl)methyl]-7H-pyrrolo[2,3-d]pyrimidin-4-amine hydrochloride] | *** (between >0.02 μM and ≤0.5 μM is indicated by three stars (***)) | **** (between >3.9 and ≤4.9 is indicated by four stars (****)) |
| CC(C)[C@H](N)Cc1cc2c(NCc3ccncc3)nc(Cl)nc2[nH]1.Cl.Cl [Cpd 12, 6-[(2R)-2-amino-3-methylbutyl]-2-chloro-N-[(pyridin-4-yl)methyl]-7H-pyrrolo[2,3-d]pyrimidin-4-amine dihydrochloride] | *** (between >0.02 μM and ≤0.5 μM is indicated by three stars (***)) | ***** (>4.9 is indicated by five stars (*****)) |
| C[C@H](N)Cc1[nH]c2nc(Cl)nc(NCc3ccco3)c2c1Cl.Cl [Cpd 13, 6-[(2S)-2-aminopropyl]-2,5-dichloro-N-[(furan-2-yl)methyl]-7H-pyrrolo[2,3-d]pyrimidin-4-amine hydrochloride] | ***** (≤0.005 μM is indicated by five stars (*****)) | ***** (>4.9 is indicated by five stars (*****)) |
| CC(C)[C@H](N)Cc1[nH]c2nc(Cl)nc(NCc3ccco3)c2c1F.Cl [Cpd 14, 6-[(2R)-2-amino-3-methylbutyl]-2-chloro-5-fluoro-N-[(furan-2-yl)methyl]-7H-pyrrolo[2,3-d]pyrimidin-4-amine hydrochloride] | **** (between >0.005 μM and ≤0.02 μM is indicated by four stars (****)) | ***** (>4.9 is indicated by five stars (*****)) |
| CC(C)[C@H](N)Cc1[nH]c2nc(Cl)nc(NCc3ccncc3)c2c1F.Cl.Cl [Cpd 15, 6-[(2R)-2-amino-3-methylbutyl]-2-chloro-5-fluoro-N-[(pyridin-4-yl)methyl]-7H-pyrrolo[2,3-d]pyrimidin-4-amine dihydrochloride] | *** (between >0.02 μM and ≤0.5 μM is indicated by three stars (***)) | **** (between >3.9 and ≤4.9 is indicated by four stars (****)) |
| C[C@H](N)Cc1cc2c(NCc3ccco3)nc(Cl)nc2[nH]1 [Cpd 16, 6-[(2S)-2-aminopropyl]-2-chloro-N-[(furan-2-yl)methyl]-7H-pyrrolo[2,3-d]pyrimidin-4-amine] | **** (between >0.005 μM and ≤0.02 μM is indicated by four stars (****)) | **** (between >3.9 and ≤4.9 is indicated by four stars (****)) |
| CNCCc1[nH]c2nc(Cl)nc(NCc3ccco3)c2c1Cl.Cl [Cpd 17, 2,5-dichloro-N-[(furan-2-yl)methyl]-6-[2-(methylamino)ethyl]-7H-pyrrolo[2,3-d]pyrimidin-4-amine hydrochloride] | *** (between >0.02 μM and ≤0.5 μM is indicated by three stars (***)) | **** (between >3.9 and ≤4.9 is indicated by four stars (****)) |
